Consider five molecules from patent publication US9206139B2, “Aggrecanase inhibitors” (Eli Lilly and Company, priority 2012, dated 2015).

pIC50: −log10 of the molar value.

A word on the pIC50: it is −log10 of the IC50, conventionally taken in molar units. For orientation: % Inhibition means the relative decrease from the control value, in per cent. A high value points to a response far below the control.

In one series the target is MMP-2 (Homo sapiens (Human), UniProt P08253). In words: In vitro fluorescence assay of MMP-2 activity. To be noted: read-out: MMP2 IC50. It is filed as biochemical. The text has this: In Vitro Fluorescence Assay of MMP-2 Activity
MMP-2, sequence (P08253 110-660): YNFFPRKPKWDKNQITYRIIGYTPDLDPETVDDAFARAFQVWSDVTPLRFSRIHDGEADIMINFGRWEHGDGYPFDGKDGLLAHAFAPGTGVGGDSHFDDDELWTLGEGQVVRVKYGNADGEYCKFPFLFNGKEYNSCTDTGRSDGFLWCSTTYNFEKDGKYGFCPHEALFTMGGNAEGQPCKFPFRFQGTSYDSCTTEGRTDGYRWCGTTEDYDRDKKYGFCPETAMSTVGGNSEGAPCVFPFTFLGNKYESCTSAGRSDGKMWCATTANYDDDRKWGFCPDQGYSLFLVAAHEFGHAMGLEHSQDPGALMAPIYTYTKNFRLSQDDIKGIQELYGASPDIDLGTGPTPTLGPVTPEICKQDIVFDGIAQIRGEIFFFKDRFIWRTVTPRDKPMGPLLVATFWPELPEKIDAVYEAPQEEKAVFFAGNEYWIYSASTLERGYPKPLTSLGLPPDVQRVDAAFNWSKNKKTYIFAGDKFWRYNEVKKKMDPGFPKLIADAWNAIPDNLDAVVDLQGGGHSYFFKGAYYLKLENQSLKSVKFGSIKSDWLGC
(§1) A continuous assay is used in which the substrate is a synthetic peptide containing a fluorescent group (7-methoxycoumarin, Mca), which is quenched by energy transfer to a 2,4-dinitrophenyl group. The substrate is the peptide Mca-PQGL-(3-[2,4-dinitrophenyl]-L-2,3-diaminopropionyl)-AR-OH. When the peptide is cleaved by MMP a large increase in fluorescence is observed. The source of the enzyme for this assay is full-length, recombinant, human pro-MMP-2 expressed in Chinese Hamster Ovary (CHO) cells that is subsequently activated by an organomercurial compound, 4-aminophenyl mercuric acetate (APMA). APMA is removed through a desalting column (MMP-2 Calbiochem® catalog number PF023). The assay buffer consists of 100 mM Tris-HCl (pH 7.5), 100 mM NaCl, 10 mM CaCl2 and 10 μM human serum albumin Each well of the 96-well plates consists of a 100 μL reaction mixture consisting of assay buffer, MMP (final concentration of 0.2 nM, prepared by diluting in assay buffer), and varied concentrations of inhibitor (prepared by serially diluting a given inhibitor in DMSO in a 96-well polypropylene plate using a 10 point or 11 point dilution scheme). The enzymatic reactions are initiated by adding the substrate to a final concentration of 20 μM. The final DMSO concentration in the assay is 1.0%. The plate is incubated for 2-4 hours at room temperature and substrate cleavage is determined at room temperature with a fluorescence plate reader (excitation filter 320 and emission filter 436) on a LJL Analyst® or a Wallac Envision®.
(§2) The data is analyzed by using ActivityBase® software programs vs. 5.3 using a 4 parameter fit model equation 205 from which relative IC50's are generated. Maximum signal is calculated from wells untreated by inhibitor but having enzyme, substrate and 1.0% DMSO. Minimum signal is calculated from wells having buffer only (no enzyme), substrate, and 1.0% DMSO.

Another series deals with MMP3 (Homo sapiens (Human), UniProt P08254). In words: In vitro fluorescence assay of MMP3 activity. It is filed as biochemical.
MMP3, sequence (P08254 100-477, species assumed): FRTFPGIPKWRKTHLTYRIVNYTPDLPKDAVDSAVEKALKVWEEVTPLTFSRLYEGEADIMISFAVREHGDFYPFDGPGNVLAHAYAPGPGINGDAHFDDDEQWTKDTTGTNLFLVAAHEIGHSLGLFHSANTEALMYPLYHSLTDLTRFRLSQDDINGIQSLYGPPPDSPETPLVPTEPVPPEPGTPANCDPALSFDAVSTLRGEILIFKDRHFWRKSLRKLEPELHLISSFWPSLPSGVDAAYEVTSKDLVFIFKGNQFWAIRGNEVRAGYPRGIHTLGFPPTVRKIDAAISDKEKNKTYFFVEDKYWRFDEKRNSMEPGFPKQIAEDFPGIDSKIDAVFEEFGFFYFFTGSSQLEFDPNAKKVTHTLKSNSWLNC
Description: as §1, §2
(§3) Essentially the same procedure is used for the remaining MMP assays as the MMP-2 assay, above, or as known in the art. For example, for MMP-14, the enzyme source is MMP-14 (MT1-MMP) catalytic domain produced by activation of a recombinant soluble proform of the enzyme purified from the periplasm. It consists of amino acid residues Tyr^89 to Gly^265 of mature human MT1-MMP (Calbiochem® catalog number 475935). The final concentration of each well is 0.5 nM instead of 0.2 nM as in MMP-2 assay.

Another series concerns the target MMP7 (Homo sapiens (Human), UniProt P09237). In words: In vitro fluorescence assay of MMP7 activity. It is filed as biochemical.
Description: as §1, §2, §3

The target of a further series is MMP8 (Homo sapiens (Human), UniProt P22894). In words: In vitro fluorescence assay of MMP8 activity. It is filed as biochemical.
MMP8, sequence (P22894 101-467, species assumed): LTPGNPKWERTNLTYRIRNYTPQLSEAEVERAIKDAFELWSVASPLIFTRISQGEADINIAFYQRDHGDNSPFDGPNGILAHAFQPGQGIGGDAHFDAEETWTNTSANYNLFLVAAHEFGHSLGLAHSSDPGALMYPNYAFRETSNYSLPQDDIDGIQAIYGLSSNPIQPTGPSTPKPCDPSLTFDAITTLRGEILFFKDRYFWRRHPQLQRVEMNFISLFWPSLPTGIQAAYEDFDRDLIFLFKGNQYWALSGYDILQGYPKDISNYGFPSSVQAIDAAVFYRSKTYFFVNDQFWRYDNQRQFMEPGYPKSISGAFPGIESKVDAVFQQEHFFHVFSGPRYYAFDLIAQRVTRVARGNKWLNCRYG
Description: as §1, §2, §3

A further series concerns the target MMP9 (Homo sapiens (Human), UniProt P14780). In words: In vitro fluorescence assay of MMP9 activity. It is filed as biochemical.
Description: as §1, §2, §3

Another series concerns the target MMP12 (Homo sapiens (Human), UniProt P39900). In words: In vitro fluorescence assay of MMP12 activity. It is filed as biochemical.
Description: as §1, §2, §3

Another series deals with MMP13 (Homo sapiens (Human), UniProt P45452). In words: In vitro fluorescence assay of MMP13 activity. It is filed as biochemical. The protocol: A continuous assay is used in which the substrate is a synthetic peptide containing a fluorescent group (7-methoxycoumarin, Mca), which is quenched by energy transfer to a 2,4-dinitrophenyl group. The substrate is the peptide Mca-PQGL-(3-[2,4-dinitrophenyl]-L-2,3-diaminopropionyl)-AR-OH. […] APMA is removed through a desalting column (MMP-2 Calbiochem® catalog number PF023). The assay buffer consists of 100 mM Tris-HCl (pH 7.5), 100 mM NaCl, 10 mM CaCl2 and 10 μM human serum albumin Each well of the 96-well plates consists of a 100 μL reaction mixture consisting of assay buffer, MMP (final concentration of 0.2 nM, prepared by diluting in assay buffer), and varied concentrations of inhibitor (prepared by serially diluting a given inhibitor in DMSO in a 96-well polypropylene plate using a 10 point or 11 point dilution scheme). The enzymatic reactions are initiated by adding the substrate to a final concentration of 20 μM. The final DMSO concentration in the assay is 1.0%.
as §2, §3

Series [1] concerns the target MMP-14 (MT1-MMP) catalytic domain (Homo sapiens (Human), UniProt P50281). In words: In vitro fluorescence assay of MMP-14 activity. To be noted: read-out: MMP14 IC50. It is filed as biochemical.
Description: as §1, §2, §3

In series [2] the test system is aggrecanase-cleaved fragments of aggrecan (NITEGE) in synovial lavage. In words: MIA injection PD model in rats. The note with it: twice a day, rat. It is filed as in vivo, Lewis rats. The protocol: MIA Injection PD Model in Rats
The assay as described in Swearingen et al., Osteoarthritis and Cartilage 18 (2010) 1159-1166, may be employed. MIA (Sigma, catalog #I2512, sodium salt) is prepared fresh on the day of use at 3 mg in 50 ul sterile 0.9% saline. 7-8-week-old male Lewis rats are anesthetized and injected intra-articularly with MIA into the right knee (to induce endogenous aggrecanase activity and the release of aggrecan fragments into the synovial fluid) and saline in the left (contralateral) knee on day 0. […] The synovial lavage is assayed for aggrecanase-cleaved fragments of aggrecan using the NITEGE sandwich ELISA. The amount of aggrecan fragments present in the synovial lavage is determined based on a standard curve generated with aggrecanase-digested rat aggrecan. Statistical analysis is performed using Dunnett's test. Sandwich ELISA assay: For the NITEGE ELISA, the a-NITEGE monoclonal antibody is immobilized on white high binding ELISA plates (Nunc) overnight at 4 C. Following blocking, rat synovial fluid lavage samples are added to the plate and fragments with a C-terminal NITEGE sequence are captured. The captured fragments are detected using the HRP-conjugated a-HABR monoclonal antibody. The ELISA signal is measured using the Supersignal ELISA femto maximum sensitivity substrate (Pierce) and read on a Victor luminometer. The amount of aggrecan fragments present in the sample is determined based on a standard curve generated with aggrecanase-digested rat chondrosarcoma aggrecan (850 mg/ml stock diluted in antibody dilution buffer).

The target in a further series is ADAMTS-4 (Homo sapiens (Human), UniProt O75173). In words: ADAMTS-4 AlphaScreen assay. The note with it: buffer. The class given is biochemical. The method, then:
ADAMTS-4 and ADAMTS-5 AlphaScreen Assay:
(§4) The plate is covered with aluminum foil tape and the binding is allowed to incubate overnight. The plate is then read on an AlphaScreen Fusion Alpha reader from Perkin Elmer. Data is analyzed using ActivityBase™ software (IDBS Alameda, Calif.). A similar assay is used with purified dog ADAMTS-4 enzyme.
For orientation: Alpha assays give light when donor and acceptor beads are brought close together.

In another series the target is MMP1 (Homo sapiens (Human), UniProt P03956). In words: In vitro fluorescence assay of MMP1 activity. It is filed as biochemical.
MMP1, sequence (P03956 100-469, species assumed): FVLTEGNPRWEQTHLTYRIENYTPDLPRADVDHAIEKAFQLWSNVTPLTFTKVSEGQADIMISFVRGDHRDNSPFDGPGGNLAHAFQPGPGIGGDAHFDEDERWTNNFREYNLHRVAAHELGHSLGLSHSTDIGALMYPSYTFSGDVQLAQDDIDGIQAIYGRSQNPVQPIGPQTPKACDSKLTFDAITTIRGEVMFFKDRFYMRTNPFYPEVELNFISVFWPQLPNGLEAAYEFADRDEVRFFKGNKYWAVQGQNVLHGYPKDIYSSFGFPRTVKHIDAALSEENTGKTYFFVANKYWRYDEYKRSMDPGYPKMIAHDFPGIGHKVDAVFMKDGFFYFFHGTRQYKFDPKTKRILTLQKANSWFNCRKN
Description: as §1, §2, §3

For series [3], the target named is T1, dog ADAMTS-4 (Canis lupus familiaris, UniProt A0A8I3Q3A2). In words: Dog ADAMTS-4 AlphaScreen assay. It is filed as biochemical. The note with it: purified dog ADAMTS-4 enzyme. The protocol:
as §4

The target of series [4] is T1, dog ADAMTS-4. In words: Dog plasma shift AlphaScreen assay. The class given is biochemical. The note with it: dog ADAMTS-4 in 25% dog plasma. The method, then:
Rat and Dog Plasma Shift AlphaScreen Assay
The assay is completed in the same manner using 10 nM ADAMTS-5 instead of 2.1 nM. A similar assay is used with dog ADAMTS-4 in the presence of 25% dog plasma.

The next series concerns plasma ARGN. In words: Plasma biomarker ARGN in osteoarthritis dogs. It is filed as in vivo, Beagle dogs. The note with it: OA dogs. The text has this:
Study of the Plasma Biomarker ARGN in Osteoarthritis Dogs
The objective of this study is to determine the plasma biomarker ARGN response in osteoarthritic (OA) dogs to a compound of the invention across a range of doses following daily oral administration for 21 days. Sixteen (16) adult laboratory Beagle dogs ≧8 years of age with radiographic evidence of OA in the hip joint(s) and 4 age matched control Beagle dogs without OA are enrolled in the study.
(§5) Blood samples for baseline plasma ARGN concentrations are collected from all dogs on 30, 28, and 26 days to prior to beginning dose administration. […] The 4 age matched control dogs without OA all are assigned to the placebo treatment group.

The nature of series [5]: Example 2 compound plasma concentration in osteoarthritis dogs (LC-MS/MS). It is filed as in vivo, Beagle dogs.
Description: as §5

MMP12, sequence (P39900 106-470, species assumed): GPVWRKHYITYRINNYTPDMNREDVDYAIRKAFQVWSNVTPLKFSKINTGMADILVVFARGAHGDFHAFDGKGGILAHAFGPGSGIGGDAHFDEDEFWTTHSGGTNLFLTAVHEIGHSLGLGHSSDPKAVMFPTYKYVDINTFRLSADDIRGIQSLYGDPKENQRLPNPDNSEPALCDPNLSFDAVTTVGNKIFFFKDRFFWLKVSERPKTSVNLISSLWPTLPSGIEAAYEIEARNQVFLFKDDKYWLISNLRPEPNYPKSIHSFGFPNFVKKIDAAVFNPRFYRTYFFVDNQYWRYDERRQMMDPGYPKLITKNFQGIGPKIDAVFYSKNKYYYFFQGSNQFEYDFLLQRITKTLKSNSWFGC
MMP7, sequence (P09237 95-267, species assumed): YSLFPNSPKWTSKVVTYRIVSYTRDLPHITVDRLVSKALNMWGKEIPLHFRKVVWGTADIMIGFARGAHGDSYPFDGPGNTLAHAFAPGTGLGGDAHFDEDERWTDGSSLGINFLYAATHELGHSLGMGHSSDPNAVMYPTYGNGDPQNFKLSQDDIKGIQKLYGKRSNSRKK
ADAMTS-4, sequence (O75173 213-837, species assumed): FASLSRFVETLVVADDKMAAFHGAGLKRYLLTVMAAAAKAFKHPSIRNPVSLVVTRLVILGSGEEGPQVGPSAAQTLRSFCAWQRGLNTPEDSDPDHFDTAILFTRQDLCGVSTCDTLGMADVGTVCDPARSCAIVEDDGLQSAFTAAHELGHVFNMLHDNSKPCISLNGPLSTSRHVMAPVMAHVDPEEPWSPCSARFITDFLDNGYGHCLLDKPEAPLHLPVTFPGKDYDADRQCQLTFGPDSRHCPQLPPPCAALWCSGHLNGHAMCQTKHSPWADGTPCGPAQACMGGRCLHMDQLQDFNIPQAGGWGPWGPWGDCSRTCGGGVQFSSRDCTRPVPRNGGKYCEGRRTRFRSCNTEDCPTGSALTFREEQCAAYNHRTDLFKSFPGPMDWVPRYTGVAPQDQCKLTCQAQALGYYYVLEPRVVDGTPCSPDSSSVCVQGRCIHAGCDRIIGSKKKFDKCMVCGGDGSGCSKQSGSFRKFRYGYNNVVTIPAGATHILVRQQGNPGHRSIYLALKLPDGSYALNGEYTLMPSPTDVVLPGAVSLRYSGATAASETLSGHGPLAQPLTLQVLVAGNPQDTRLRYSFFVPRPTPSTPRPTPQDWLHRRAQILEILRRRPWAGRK
MMP9, sequence (P14780 94-707, species assumed): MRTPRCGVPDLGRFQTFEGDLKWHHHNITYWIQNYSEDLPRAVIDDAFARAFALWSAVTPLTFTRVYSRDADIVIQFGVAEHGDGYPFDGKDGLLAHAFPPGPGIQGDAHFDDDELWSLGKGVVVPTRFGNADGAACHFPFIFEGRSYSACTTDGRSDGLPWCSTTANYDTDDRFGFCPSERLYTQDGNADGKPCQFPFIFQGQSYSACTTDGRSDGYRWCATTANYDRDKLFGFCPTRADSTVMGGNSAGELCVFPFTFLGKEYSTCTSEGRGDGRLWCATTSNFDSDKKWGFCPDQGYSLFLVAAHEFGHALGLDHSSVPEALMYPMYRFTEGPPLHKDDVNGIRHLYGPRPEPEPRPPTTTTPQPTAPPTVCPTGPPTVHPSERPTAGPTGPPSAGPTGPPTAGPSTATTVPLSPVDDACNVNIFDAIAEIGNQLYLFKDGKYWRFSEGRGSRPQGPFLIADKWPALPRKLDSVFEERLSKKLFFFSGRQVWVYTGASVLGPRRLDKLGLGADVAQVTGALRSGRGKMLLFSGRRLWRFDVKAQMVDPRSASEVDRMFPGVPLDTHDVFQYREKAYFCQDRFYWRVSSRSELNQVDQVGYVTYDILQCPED
T1 sequence (A0A8I3Q3A2 1-992): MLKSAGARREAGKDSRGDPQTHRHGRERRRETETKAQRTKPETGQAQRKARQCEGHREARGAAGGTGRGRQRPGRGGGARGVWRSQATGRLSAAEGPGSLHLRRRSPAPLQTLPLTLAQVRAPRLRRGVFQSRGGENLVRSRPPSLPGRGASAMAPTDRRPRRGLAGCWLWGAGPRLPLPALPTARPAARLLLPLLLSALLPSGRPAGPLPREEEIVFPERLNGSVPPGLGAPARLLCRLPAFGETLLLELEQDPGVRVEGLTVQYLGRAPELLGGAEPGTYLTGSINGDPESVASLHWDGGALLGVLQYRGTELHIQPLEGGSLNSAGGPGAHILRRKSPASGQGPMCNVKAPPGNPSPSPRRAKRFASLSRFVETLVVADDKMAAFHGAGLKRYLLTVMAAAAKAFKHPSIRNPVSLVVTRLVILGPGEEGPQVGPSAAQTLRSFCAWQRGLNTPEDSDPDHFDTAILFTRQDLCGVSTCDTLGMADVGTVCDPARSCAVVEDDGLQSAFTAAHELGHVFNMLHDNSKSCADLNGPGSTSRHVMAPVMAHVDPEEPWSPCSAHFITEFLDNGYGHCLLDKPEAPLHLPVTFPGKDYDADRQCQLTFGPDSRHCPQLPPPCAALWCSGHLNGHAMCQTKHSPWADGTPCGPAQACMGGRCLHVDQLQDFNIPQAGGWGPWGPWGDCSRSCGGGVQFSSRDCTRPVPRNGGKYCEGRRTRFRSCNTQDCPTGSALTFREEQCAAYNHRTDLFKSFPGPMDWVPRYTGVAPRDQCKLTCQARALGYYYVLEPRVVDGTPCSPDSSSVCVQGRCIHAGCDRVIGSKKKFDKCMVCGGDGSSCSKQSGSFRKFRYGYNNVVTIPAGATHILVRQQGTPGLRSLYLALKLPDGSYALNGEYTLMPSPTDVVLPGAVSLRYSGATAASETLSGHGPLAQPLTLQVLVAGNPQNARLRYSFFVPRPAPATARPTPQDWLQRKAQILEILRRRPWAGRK

On to `C[C@H](Cc1ccc(C(F)(F)F)cc1)C(=O)NC[C@@]1(C2CC2)NC(=O)NC1=O` [Example 1, (2R)—N-[[(4R)-4-cyclopropyl-2,5-dioxo-imidazolidin-4-yl]methyl]-2-methyl-3-[4-(trifluoromethyl)phenyl]propanamide], for which the pIC50 on MMP-2 is 5.76; against MMP3, 5.55; at MMP7, less than 4.00; against MMP8, 7.75; against MMP9 it was 4.92; on MMP12 it was 8.05. Moreover, the pIC50 on MMP13 is 5.95; in [1] it was 5.41. Besides, the “% Inhibition” value in series [2] (10 MPK oral) is recorded as 41.3%; in series [2] (30 MPK oral), 48.2%; in series [2] (100 MPK oral), 70.2%. Also, the “MIA (aggrecan fragments in synovial lavage of MIA knee)” value was determined as 15.87 in series [2] (10 MPK oral), 14.00 in [2] (30 MPK oral) and 8.06 in [2] (100 MPK oral).

In the case of `CC(C)(Cc1ccc(C(F)(F)F)cc1)C(=O)NC[C@@]1(C2CC2)NC(=O)NC1=O` [Example 5, N-[[(4R)-4-cyclopropyl-2,5-dioxoimidazolidin-4-yl]methyl]-2,2-dimethyl-3-[4-(trifluoromethyl)phenyl]propanamide], the pIC50 is 8.15 against ADAMTS-4; 5.34 at MMP1; 5.33 at MMP-2; 4.88 against MMP3; less than 4.00 against MMP7; 7.27 against MMP8. Also, the pIC50 on MMP9 was 5.12; at MMP12, 7.15; on MMP13, 5.32; in series [1] it was 4.83.

With `O=C1NC(=O)[C@](CNC(=O)[C@@H](Cc2ccc(C(F)(F)F)cc2)C2CC2)(C2CC2)N1` [Example 3, (2S)-2-cyclopropyl-N-[[(4R)-4-cyclopropyl-2,5-dioxo-imidazolidin-4-yl]methyl]-3-[4-(trifluoromethyl)phenyl]propanamide], the pIC50 was 4.41 at MMP1; 4.46 at MMP-2; 4.00 on MMP3; less than 4.00 on MMP7; 6.09 on MMP8; less than 4.00 at MMP9. Moreover, the pIC50 was 6.57 against MMP12, 4.33 against MMP13 and 4.30 in series [1].

For the molecule `CC[C@H](Cc1ccc(C(F)(F)F)cc1)C(=O)NC[C@@]1(C2CC2)NC(=O)NC1=O` [Example 2, (2R)—N-[[(4R)-4-cyclopropyl-2,5-dioxo-imidazolidin-4-yl]methyl]-2-[[4-(trifluoromethyl)phenyl]methyl]butanamide], the pIC50 at ADAMTS-4 was 8.70; against dog ADAMTS-4 [3], 9.00; on dog ADAMTS-4 [4], 6.49; at MMP1 it was 6.05; on MMP-2, 6.15; against MMP3, 4.81. In addition, the pIC50 was less than 4.00 against MMP7; more than 8.29 on MMP8; 6.36 against MMP9; 7.59 at MMP12; 5.38 at MMP13; 5.10 in series [1]. In addition, the “mean Day 21 inhibition of plasma ARGN concentrations” value in the series on plasma ARGN (0.1 mg/kg daily oral) is 33.8%; with plasma ARGN (1 mg/kg daily oral), 70.7%; in the series with plasma ARGN (10 mg/kg daily oral) it was 80.3%. Besides, in series [5] (0.1, 1, 10 mg/kg daily oral), the “plasma concentrations versus dosage” value is “increase with dosage in a sub-proportional manner”. For the same molecule, the steady-state trough concentrations result in series [5] (daily oral dosing) was “rapidly achieved”.

Regarding `CC(C)[C@H](Cc1ccc(C(F)(F)F)cc1)C(=O)NC[C@@]1(C2CC2)NC(=O)NC1=O` [Example 4, (2S)—N-[[(4R)-4-cyclopropyl-2,5-dioxo-imidazolidin-4-yl]methyl]-3-methyl-2-[[4-(trifluoromethyl)phenyl]methyl]butanamide], the pIC50 was 7.85 against ADAMTS-4; 4.25 against MMP1; less than 4.00 on MMP-2; less than 4.00 at MMP3; less than 4.00 against MMP7; 5.28 against MMP8. Also, the pIC50 against MMP9 was less than 4.00; at MMP12, 5.47; against MMP13, less than 4.00; in [1] it was less than 4.00.
